The values below come from patent publication US20090253757A1, “Plant protection agents” (priority 1996, published 2009).

In the assay the test system is Erysiphe graminis. Nature of the assay: Activity against Erysiphe graminis on barley (residual protective / systemic). It counts as in vivo. From the text: A synergistic effect is present if the activity of the active ingredient combination is greater than the sum of activities of the individual components. The activity E to be expected for a given active ingredient combination obeys the so-called COLBY formula and may be calculated as follows (COLBY, S. R. “Calculating synergistic and antagonistic responses of herbicide combination”. Weeds, Vol. 15, pages 20-22; 1967): ppm=milligrams active ingredient (=ai) per litre spray mixture X=% activity from active ingredient I during application of p ppm of active ingredient Y=% activity from active ingredient II during application of q ppm of active ingredient The expected (additive) activity of active ingredients I+II during application of […] active ingredient is, according to Colby If the activity actually observed (O) is greater than the expected activity (E), then the combination is super-additive in its activity, i.e. there is a synergistic effect ([…] factor). Barley plants of approximately 8 cm height are sprayed until dripping wet with an aqueous spray mixture prepared from wettable powder of the active ingredient mixture, and 3 to 4 hours later are dusted with conidia of the fungus. The infected plants are placed in a greenhouse at […]. 12 days after infection, the fungal attack is evaluated. An aqueous spray mixture prepared from wettable powder of the active ingredient mixture is poured onto barley plants of approximately 8 cm height. […] 48 hours later, the plants are dusted with conidia of the fungus. The infected plants are placed in a greenhouse at 22° C. 12 days after infection, the fungal attack is evaluated.

Regarding `CON=C(C(=O)OC)c1ccccc1CON=C(C)c1cccc(C(F)(F)F)c1` [I, 2-[α-{[(α-methyl-3-trifluoromethyl-benzyl)imino]-oxy}-o-tolyl]-glyoxylic acid-methylester-O-methyloxime], the “% activity found O” value by setting is: (active ingredient I 0.1 mg/litre alone) 6%; (active ingredient I 1.0 mg/litre alone) 30%.
Consider `Fc1ccc(Oc2ccnc3cc(Cl)cc(Cl)c23)cc1` [IIA, 5,7-dichloro-4-(4-fluorophenoxy)quinoline], for which the inhibition at 0.1 µg/mL (Blumeria graminis, active ingredient IIA 0.1 mg/litre alone, read-out: % activity found O) was determined as 4%. Also, the inhibition at 0.5 µg/mL (Blumeria graminis, active ingredient IIA 0.5 mg/litre alone, read-out: % activity found O) was found to be 6%. Besides, the inhibition at 1 µg/mL (Blumeria graminis, active ingredient IIA 1.0 mg/litre alone, read-out: % activity found O) worked out at 8%. Further, the inhibition at 10 µg/mL (Blumeria graminis, active ingredient IIA 10.0 mg/litre alone, read-out: % activity found O) amounted to 21%.
